Starred links: 1 amine or outer side, 2 acyl side, 3 side chain; linkers in the order of their positions; H or OH if unused. Non-standard residues stand in square brackets, D forms with d. Residues, ends and D or L forms follow the SMILES beside them. *: point of attachment. dAla(cis-4-NHCOPyz-cHex) = N[C@H](C[C@H]1CC[C@@H](NC(=O)c2cnccn2)CC1)C(=O)O; X1 = O=C(N[C@H]1CC[C@@H](C[C@@H](N[*:1])C(=O)[*:2])CC1)c1ccccn1; X4 = O=C(N[C@H]1CC[C@@H](C[C@@H](N[*:1])C(=O)[*:2])CC1)c1cccnc1; X3 = O=C(N[C@H]1CC[C@H](C[C@@H](N[*:1])C(=O)[*:2])CC1)c1cnccn1; X9 = CN=C(NCCC[C@H](N[*:1])C(=O)[*:2])N(C)C; X5 = O=C([C@H](CCCCNC1CCCC1)N[*:1])[*:2]; dPhe(4-Cl) = N[C@H](Cc1ccc(Cl)cc1)C(=O)O; d2Nal = N[C@H](Cc1ccc2ccccc2c1)C(=O)O; Lys(iPr) = CC(C)NCCCC[C@H](N)C(=O)O; Orn(iPr) = CC(C)NCCC[C@H](N)C(=O)O; Benzoyl(4-OH) = O=C(c1ccc(O)cc1)*; aIle = CC[C@@H](C)[C@H](N)C(=O)O; d3Pal = N[C@H](Cc1cccnc1)C(=O)O; Isonicotinoyl = O=C(c1ccncc1)*; Nicotinoyl = O=C(c1cccnc1)*; Picolinoyl = O=C(c1ccccn1)*; Nle = CCCC[C@H](N)C(=O)O; Orn = NCCC[C@H](N)C(=O)O; Abu = CC[C@H](N)C(=O)O; Me2Gly = CN(C)CC(=O)*
Tested on: anaesthesized rats
Assay: wheal test, intradermal injection
Type: in vivo, rat
Parameters: Wheal (wheal response): unit not given here
Settings: for Wheal Area / Wheal: 10 ug peptide intradermally; for Wheal: Table I
Description: The antiovulatory activity, AOA, in rats was determined as described by Humphries et al. (12). Antiovulation assays were performed by counting, on estrus, the number of ova shed by 4-day cycling rats after a single sc injection of the LH-RH analogue in corn oil was administered between 12 and 12:30 p.m. on […]. The control rats received 0.3 mL of the vehicle. The wheal test was performed by intradermally injecting 10 ug of peptide in 100 ul of saline into anaesthesized rats, measuring the ideally circular wheal response and calculating the area. The in vitro histamine release test was done as described by Karten et al. (4). A suspension of rat mast cells was added to increasing concentrations of peptide and the mixture was incubated for a few minutes followed by centrifugation to collect the histamine in the supernatant. A PIPES (piperazine-N,N'-bis[2-ethanesulfonic acid]) medium buffered at pH 7.4 containing NaCl 119 mM, KCl 5 mM, PIPES 25 mM, NaOH 40 mM, glucose 5.6 mM, CaCl2 1 mM, and 0.1% bovine serum albumin was used. This was designated as PIPES AC. Peptides were dissolved in double distilled H2 O at a concentration of 2 mg/ml and stored at -20° C. They were thawed just prior to testing, diluted in PIPES AC and prewarmed for five minutes at 37° C. Peptides studied were stable to heating at 56° C. for two hours, and to freezing and thawing.

Wheal Area [mm^2 /10 μg] | Wheal [mm^2 /10] | SMILES | further results
95.1 ± 5.0 |  | CC[C@H](NC(=O)[C@@H](CCCCNC(=O)c1ccccn1)NC(=O)[C@H](CCCCNC(=O)c1ccc(O)cc1)NC(=O)[C@H](CO)NC(=O)[C@@H](Cc1cccnc1)NC(=O)[C@@H](Cc1ccc(Cl)cc1)NC(=O)[C@@H](Cc1ccc2ccccc2c1)NC(C)=O)C(=O)N[C@@H](CCCCNC(C)C)C(=O)N1CCC[C@H]1C(=O)N[C@H](C)C(N)=O [compound 26381] (Ac-[d2Nal][dPhe(4-Cl)][d3Pal]SK(Benzoyl(4-OH))[dK](Picolinoyl)[Abu][Lys(iPr)]P[dA]-NH2) | 
129.6 ± 8.8 |  | CC(=O)N[C@H](Cc1ccc2ccccc2c1)C(=O)N[C@H](Cc1ccc(Cl)cc1)C(=O)N[C@H](Cc1cccnc1)C(=O)N[C@@H](CO)C(=O)N[C@@H](CCCCNC(=O)c1cccnc1)C(=O)N[C@H](C[C@H]1CC[C@H](NC(=O)c2cnccn2)CC1)C(=O)N[C@@H](CC(C)C)C(=O)N[C@@H](CCCCNC(C)C)C(=O)N1CCC[C@H]1C(=O)N[C@H](C)C(N)=O [compound 25805] (Ac-[d2Nal][dPhe(4-Cl)][d3Pal]SK(Nicotinoyl)[X3]L[Lys(iPr)]P[dA]-NH2) | 
78.6 ± 4.5 |  | CC[C@@H](C)[C@H](NC(=O)[C@@H](CCCCNC(=O)c1ccccn1)NC(=O)[C@H](CCCCNC(=O)c1ccccn1)NC(=O)[C@H](CO)NC(=O)[C@@H](Cc1cccnc1)NC(=O)[C@@H](Cc1ccc(Cl)cc1)NC(=O)[C@@H](Cc1ccc2ccccc2c1)NC(C)=O)C(=O)N[C@@H](CCCNC(C)C)C(=O)N1CCC[C@H]1C(=O)N[C@H](C)C(N)=O [compound 26178] (Ac-[d2Nal][dPhe(4-Cl)][d3Pal]SK(Picolinoyl)[dK](Picolinoyl)[aIle][Orn(iPr)]P[dA]-NH2) | 
107.0 ± 6.0 |  | CCCC[C@H](NC(=O)[C@@H](CCCCNC(=O)c1ccccn1)NC(=O)[C@H](CCCCNC(=O)c1ccccn1)NC(=O)[C@H](CO)NC(=O)[C@@H](Cc1cccnc1)NC(=O)[C@@H](Cc1ccc(Cl)cc1)NC(=O)[C@@H](Cc1ccc2ccccc2c1)NC(C)=O)C(=O)N[C@@H](CCCCNC(C)C)C(=O)N1CCC[C@H]1C(=O)N[C@H](C)C(N)=O [compound 25988] (Ac-[d2Nal][dPhe(4-Cl)][d3Pal]SK(Picolinoyl)[dK](Picolinoyl)[Nle][Lys(iPr)]P[dA]-NH2) | 

More lines, now with the values behind:

SMILES | Wheal Area [mm^2 /10 μg] | Wheal [mm^2 /10] | further results
CC(=O)N[C@H](Cc1ccc2ccccc2c1)C(=O)N[C@H](Cc1ccc(Cl)cc1)C(=O)N[C@H](Cc1cccnc1)C(=O)N[C@@H](CO)C(=O)N[C@@H](CCCCNC(=O)c1cccnc1)C(=O)N[C@H](C[C@H]1CC[C@@H](NC(=O)c2cccnc2)CC1)C(=O)N[C@@H](CC(C)C)C(=O)N[C@@H](CCCCNC(C)C)C(=O)N1CCC[C@H]1C(=O)N[C@H](C)C(N)=O [IBR 25648] (Ac-[d2Nal][dPhe(4-Cl)][d3Pal]SK(Nicotinoyl)[X4]L[Lys(iPr)]P[dA]-NH2) | 101.8 ± 4.3 |  | 
CC(=O)N[C@H](Cc1ccc2ccccc2c1)C(=O)N[C@H](Cc1ccc(Cl)cc1)C(=O)N[C@H](Cc1cccnc1)C(=O)N[C@@H](CO)C(=O)N[C@@H](CCCCNC(=O)c1ccccn1)C(=O)N[C@H](CCCCNC(=O)c1ccccn1)C(=O)N[C@@H](CC(C)C)C(=O)N[C@@H](CCCCNC(C)C)C(=O)N1CCC[C@H]1C(=O)N[C@H](C)C(N)=O [compound 25147] (Ac-[d2Nal][dPhe(4-Cl)][d3Pal]SK(Picolinoyl)[dK](Picolinoyl)L[Lys(iPr)]P[dA]-NH2) |  | 123.0 | 
CN=C(NCCC[C@H](NC(=O)[C@H](CO)NC(=O)[C@@H](Cc1cccnc1)NC(=O)[C@@H](Cc1ccc(Cl)cc1)NC(=O)[C@@H](Cc1ccc2ccccc2c1)NC(C)=O)C(=O)N[C@H](CCCCNC(=O)c1cccnc1)C(=O)N[C@@H](CC(C)C)C(=O)N[C@@H](CCCCNC(C)C)C(=O)N1CCC[C@H]1C(=O)N[C@H](C)C(N)=O)N(C)C [compound 24931] (Ac-[d2Nal][dPhe(4-Cl)][d3Pal]S[X9][dK](Nicotinoyl)L[Lys(iPr)]P[dA]-NH2) |  | 140 ± 7.0 | 
CC(=O)N[C@H](Cc1ccc2ccccc2c1)C(=O)N[C@H](Cc1ccc(Cl)cc1)C(=O)N[C@H](Cc1cccnc1)C(=O)N[C@@H](CO)C(=O)N[C@@H](CCCCNC(=O)CN(C)C)C(=O)N[C@H](CCCCNC(=O)c1cccnc1)C(=O)N[C@@H](CC(C)C)C(=O)N[C@@H](CCCCNC(C)C)C(=O)N1CCC[C@H]1C(=O)N[C@H](C)C(N)=O [compound 25509] (Ac-[d2Nal][dPhe(4-Cl)][d3Pal]SK(Me2Gly)[dK](Nicotinoyl)L[Lys(iPr)]P[dA]-NH2) |  | 110 ± 3 | 
CC(=O)N[C@H](Cc1ccc2ccccc2c1)C(=O)N[C@H](Cc1ccc(Cl)cc1)C(=O)N[C@H](Cc1cccnc1)C(=O)N[C@@H](CO)C(=O)N[C@@H](CCCCNC(=O)c1ccccn1)C(=O)N[C@H](C[C@H]1CC[C@@H](NC(=O)c2ccccn2)CC1)C(=O)N[C@@H](CC(C)C)C(=O)N[C@@H](CCCCNC(C)C)C(=O)N1CCC[C@H]1C(=O)N[C@H](C)C(N)=O [IV-4] (Ac-[d2Nal][dPhe(4-Cl)][d3Pal]SK(Picolinoyl)[X1]L[Lys(iPr)]P[dA]-NH2) | 123.0 ± 5.0 |  | 
CC(=O)N[C@H](Cc1ccc2ccccc2c1)C(=O)N[C@H](Cc1ccc(Cl)cc1)C(=O)N[C@H](Cc1cccnc1)C(=O)N[C@@H](CO)C(=O)N[C@@H](Cc1ccc(O)cc1)C(=O)N[C@H](CCCCNC(=O)c1cccnc1)C(=O)N[C@@H](CC(C)C)C(=O)N[C@@H](CCCN)C(=O)N1CCC[C@H]1C(=O)N[C@H](C)C(N)=O [compound 24748] (Ac-[d2Nal][dPhe(4-Cl)][d3Pal]SY[dK](Nicotinoyl)L[Orn]P[dA]-NH2) |  | 129.4 | 
CC(=O)N[C@H](Cc1ccc2ccccc2c1)C(=O)N[C@H](Cc1ccc(Cl)cc1)C(=O)N[C@H](Cc1cccnc1)C(=O)N[C@@H](CO)C(=O)N[C@@H](CCCCNC(=O)c1cccnc1)C(=O)N[C@H](CCCCNC(=O)c1cccnc1)C(=O)N[C@@H](CC(C)C)C(=O)N[C@@H](CCCCNC1CCCC1)C(=O)N1CCC[C@H]1C(=O)N[C@H](C)C(N)=O [compound 25078] (Ac-[d2Nal][dPhe(4-Cl)][d3Pal]SK(Nicotinoyl)[dK](Nicotinoyl)L[X5]P[dA]-NH2) |  | 147.0 | 
CC(=O)N[C@H](Cc1ccc2ccccc2c1)C(=O)N[C@H](Cc1ccc(Cl)cc1)C(=O)N[C@H](Cc1cccnc1)C(=O)N[C@@H](CO)C(=O)N[C@@H](CCCCNC(=O)c1ccccn1)C(=O)N[C@H](C[C@H]1CC[C@@H](NC(=O)c2cnccn2)CC1)C(=O)N[C@@H](CC(C)C)C(=O)N[C@@H](CCCCNC(C)C)C(=O)N1CCC[C@H]1C(=O)N[C@H](C)C(N)=O [compound 25897] (Ac-[d2Nal][dPhe(4-Cl)][d3Pal]SK(Picolinoyl)[dAla(cis-4-NHCOPyz-cHex)]L[Lys(iPr)]P[dA]-NH2) |  |  | Wheal (wheal response) (Table XIV and text, unit not given): 122.8
CC(=O)N[C@H](Cc1ccc2ccccc2c1)C(=O)N[C@H](Cc1ccc(Cl)cc1)C(=O)N[C@H](Cc1cccnc1)C(=O)N[C@@H](CO)C(=O)N[C@@H](CCCCNC(=O)c1ccncc1)C(=O)N[C@H](CCCCNC(=O)c1ccncc1)C(=O)N[C@@H](CC(C)C)C(=O)N[C@@H](CCCCNC(C)C)C(=O)N1CCC[C@H]1C(=O)N[C@H](C)C(N)=O [compound 25146] (Ac-[d2Nal][dPhe(4-Cl)][d3Pal]SK(Isonicotinoyl)[dK](Isonicotinoyl)L[Lys(iPr)]P[dA]-NH2) |  | 140.3 | 

From patent US5763404A, “Methods for using LHRH antagonists with low histamine release” (priority 1995, dated 1998)
